According to US8455421B2, “Compositions and methods for the removal of chewing gum residues from substrates” (Expelliere Int Ltd, priority 2008, dated 2013):

test system: laccase from Trametes versicolor (LTV); assay: Compatibility of laccase with ionic liquids (oxidation of catechol to 1,2-benzoquinone); assay type: biochemical; details: laccase 25 mg/L, sodium phosphate-citrate buffer 25 mM, pH 4.5, 22° C., 405 nm
Text: An important consideration in preparing ionic liquids comprising enzymes for use in the methods of the present invention is the activity of the enzyme in the presence of the ionic liquid. The compatibility of enzymes and ionic liquids can be easily determined by the skilled person by standard laboratory techniques. One suitable technique uses high throughput screening of ionic liquids and enzymes using multiple well plates. A standard enzyme-catalysed transformation may be used to analyse the activity of a particular enzyme in the presence of various ionic liquids at various concentrations. One suitable reaction is the oxidation of catechol to 1,2-benzoquinone. The progress of this reaction can be monitored visually by the dark colour of 1,2-benzoquinone and spectrally, for instance using UV-Vis spectrometry. This transformation can be represented by the following reaction scheme, in which laccase is exemplified:
Compatibility of enzymes with ionic liquid compositions was determined by high throughput screening on multiple well plates of various enzymes against various concentrations of ionic liquids in water. The oxidation of catechol to 1,2-benzoquinone was measured in aqueous sodium phosphate-citrate buffer solutions (25 mM) containing laccase (25 mgL^−1) and an ionic liquid, premixed at pH 6.0 for laccase from Agaricus bisporus (LAB) and at pH 4.5 for laccase from Trametes versicolor (LTV). The pH was verified by diluting the final reaction mixture in deionised water and measuring the pH using a pH meter. The rate of 1,2-benzoquinone formation was measured using an Agilent spectrophotometer at 405 nm and 22° C. using an extinction coefficient of 760 M^−1 cm^−1. The activity was measured over a range of ionic liquid concentrations from 0 to 99.4%, since the laccases were not soluble in the pure ionic liquids, but could be dissolved when the ionic liquids were mixed with 0.6% of buffer solution containing the enzyme.

Concentration of ionic liquid in water that inactivates Laccase (LTV), 30%:
CCOS(=O)(=O)[O-].C[N+](C)(C)CCCO [[N1,1,1,3OH]^+[EtOSO3]^−]
CCOS(=O)(=O)[O-].CC[N+](C)(C)CCO [[N2,1,1,2OH]^+[EtOSO3]^−]
CCOS(=O)(=O)[O-].CCn1cc[n+](C)c1 [[emim]^+[EtOSO3]^−]

Concentration of ionic liquid in water that inactivates Laccase (LTV), 90%:
CCCCCCCC[N+](C)(C)CCCC.O=[N+]([O-])[O-] [[N8,4,1,1]^+[NO3]^−]
CCCCC(CC)COC(=O)CC(C(=O)OCC(CC)CCCC)S(=O)(=O)[O-].CCCCn1cc[n+](C)c1 (stereo not drawn) [[bmim][docusate], 1-methyl-3-butylimidazolium docusate]
CC(O)C(=O)[O-].CCCCn1cc[n+](C)c1 [[bmim]^+[CH3CH(OH)CO2]^−]
CCCCC(CC)COC(=O)CC(C(=O)OCC(CC)CCCC)S(=O)(=O)[O-].CCCC[N+]1(C)CCCC1 (stereo not drawn) [[bmpyr]^+[docusate]^−]
CCCCC(CC)COC(=O)CC(C(=O)OCC(CC)CCCC)S(=O)(=O)[O-].CCn1cc[n+](C)c1 (stereo not drawn) [[emim][docusate]]

Concentration of ionic liquid in water that inactivates Laccase (LTV), 70%:
CCCC[N+](C)(C)CC.CCOS(=O)(=O)[O-] [[N4,2,1,1]^+[EtOSO3]^−]
